Like-named read-outs stand apart in the source and are kept apart here.
How the values were obtained:
[1] = system: WiDr (Colon); test: antiproliferative assay (NCI protocol), WiDr; type: cell-based; settings: Homo sapiens, multidrug-resistant cell line, mean ± SD
Source text: (§1) The compounds prepared herein were subjected to in vitro testing as potential antiproliferative agents against a panel of six human solid tumour cell lines, following minor modifications of the protocol from the US National Cancer Institute (NCI). They can be categorized into two groups: drug-sensitive cell lines (A549, HBL-100, HeLa, SW1573) and multidrug resistant cell lines (T-47D, WiDr). […] Ph-derived thiourea 21e and imidazolidine-2-thione 24f were not included in the study.
(§2) Minor modifications of the US National Cancer Institute (NCI) protocol were used.

[2] = system: T-47D (Breast); test: antiproliferative assay (NCI protocol), T-47D; type: cell-based; settings: Homo sapiens, T47D; multidrug-resistant cell line, mean ± SD
Source text: as §1, §2

[3] = system: SW1573 (Lung, Non-Small); test: antiproliferative assay (NCI protocol), SW1573; type: cell-based; settings: Homo sapiens, drug-sensitive cell line, mean ± SD
Source text: as §1, §2

[4] = system: HeLa (Cervix); test: antiproliferative assay (NCI protocol), HeLa; type: cell-based; settings: Homo sapiens, drug-sensitive cell line, mean ± SD
Source text: as §1, §2

[5] = system: HBL-100 (Breast); test: antiproliferative assay (NCI protocol), HBL-100; type: cell-based; settings: Homo sapiens, drug-sensitive cell line, mean ± SD
Source text: as §1, §2

[6] = system: A549 (Lung, Non-Small); test: antiproliferative assay (NCI protocol), A549; type: cell-based; settings: Homo sapiens, drug-sensitive cell line, mean ± SD
Source text: as §1, §2

[7] = target: hCA IV (Homo sapiens, UniProt P22748); test: stopped-flow CO2 hydration assay, hCA IV; settings: mean from three assays, errors ±5–10%
Method: (§3) The panel of CA-directed compounds prepared herein were assessed in vitro against a series of isoforms of human CA with relevant therapeutic interest.
(§4) The choice of such isoforms will provide information about selectivity against tumour-associated CA IX and XII compared to other relevant CAs.
(§5) The inhibitory properties of title compounds against CAs were determined using the stopped-flow CO2 hydrase assay, as previously reported [46].

[8] = system: panel of six human solid tumour cell lines (A549, HBL-100, HeLa, SW1573, T-47D, WiDr); test: antiproliferative assay (NCI protocol), whole panel; type: cell-based
Source text: as §1, §2

[9] = target: T1, hCA IX (Homo sapiens, UniProt Q16790); design: made in house; settings: previously reported thioureas; cited from earlier work
[10] = target: T1, hCA IX; test: stopped-flow CO2 hydration assay, hCA IX; settings: for S.I. I/IX: Ki (CA I)/Ki (CA IX); for S.I. II/IX: Ki (CA II)/Ki (CA IX)
Method: as §3, §4, §5

[11] = target: hCA II (Homo sapiens, UniProt P00918); test: stopped-flow CO2 hydration assay, hCA II
Method: as §3, §4, §5

[12] = target: hCA I (Homo sapiens, UniProt P00915); test: stopped-flow CO2 hydration assay, hCA I
Method: as §3, §4, §5

[13] = target: hCA XII (Homo sapiens, UniProt O43570); test: stopped-flow CO2 hydration assay, hCA XII; settings: for S.I. I/XII: Ki (CA I)/Ki (CA XII); for S.I. II/XII: Ki (CA II)/Ki (CA XII)
Chain of hCA XII (O43570 25-354): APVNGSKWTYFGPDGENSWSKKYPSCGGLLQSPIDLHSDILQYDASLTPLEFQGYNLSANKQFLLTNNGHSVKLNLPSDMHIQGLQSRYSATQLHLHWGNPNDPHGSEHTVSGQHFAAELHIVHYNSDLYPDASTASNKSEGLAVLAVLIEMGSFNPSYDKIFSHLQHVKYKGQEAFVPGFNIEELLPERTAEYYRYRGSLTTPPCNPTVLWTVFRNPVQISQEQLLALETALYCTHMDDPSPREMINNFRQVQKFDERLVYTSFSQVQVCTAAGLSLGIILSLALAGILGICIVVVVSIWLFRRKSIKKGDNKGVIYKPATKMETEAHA
Method: as §3, §4, §5

Chain of hCA IV (P22748 19-312): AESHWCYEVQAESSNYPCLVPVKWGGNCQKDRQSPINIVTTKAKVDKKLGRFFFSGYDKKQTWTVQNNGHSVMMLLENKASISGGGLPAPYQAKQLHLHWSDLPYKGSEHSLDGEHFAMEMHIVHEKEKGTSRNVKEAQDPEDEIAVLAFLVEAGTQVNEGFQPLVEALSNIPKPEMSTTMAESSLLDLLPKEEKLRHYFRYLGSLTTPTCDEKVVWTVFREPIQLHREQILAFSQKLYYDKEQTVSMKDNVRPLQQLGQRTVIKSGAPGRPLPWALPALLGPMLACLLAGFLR
Chain of hCA I (P00915 whole entry): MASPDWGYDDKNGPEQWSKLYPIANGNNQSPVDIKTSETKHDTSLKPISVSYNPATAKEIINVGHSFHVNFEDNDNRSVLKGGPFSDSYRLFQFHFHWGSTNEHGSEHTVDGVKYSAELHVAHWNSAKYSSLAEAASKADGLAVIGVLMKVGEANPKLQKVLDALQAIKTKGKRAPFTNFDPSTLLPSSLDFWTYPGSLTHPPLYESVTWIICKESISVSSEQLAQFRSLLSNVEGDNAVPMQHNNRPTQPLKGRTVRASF

**Q.** For O=c1cc(-c2ccccc2)c2ccc(OCCCCN3C(=S)N[C@@H]4[C@@H](O)[C@@H]([C@H](O)CO)O[C@@H]43)cc2o1 [Compound 24e, 1-{4′-[7″-(4″-Phenyl-2″-oxo-2″H-chromen-7″-yl)oxy]butyl}-(1‴,2‴-dideoxy-α-D-glucofurano)[2,1-d]imidazolidine-2-thione], which GI50 [1] is on record?
**A.** Its GI50 is 47 ± 11 µM.

**Q.** And the GI50 [2]?
**A.** Its GI50 is 70 ± 23 µM.

**Q.** And the GI50 [3]?
**A.** The GI50 was 5.7 ± 1.8 µM.

**Q.** And the GI50 [4]?
**A.** Its GI50 is 31 ± 0.2 µM.

**Q.** What about the GI50 [5] of the same compound?
**A.** Its GI50 is 23 ± 0.8 µM.

**Q.** And the GI50 [6]?
**A.** Its GI50 is 64 ± 31 µM.

**Q.** Which Ki [7] does the source give for NS(=O)(=O)c1cccc(N2C(=S)NC3C(O)C(C(O)CO)OC32)c1 [Compound 9b, 1-(3′-Sulfonamidophenyl)-(1″,2″-dideoxy-α-D-galactofurano)[2,1-d]imidazolidine-2-thione] here?
**A.** The Ki was 27.3 µM.

**Q.** For O=c1cc(-c2ccccc2)c2ccc(OCCCCCCN3C(=S)N[C@@H]4[C@@H](O)[C@@H]([C@H](O)CO)O[C@@H]43)cc2o1 [Compound 24f, 1-{6′-[7″-(4″-Phenyl-2″-oxo-2″H-chromen-7″-yl)oxy]hexyl}-(1‴,2‴-dideoxy-α-D-glucofurano)[2,1-d]imidazolidine-2-thione], which GI50 ([8]; maximum concentration tested 100 µM, read-out: GI50, all tested cell lines) is on record?
**A.** The GI50 was greater than 100 µM.

**Q.** Which Ki [9] does the source give for NS(=O)(=O)c1ccc(NC(=S)N[C@H]2C(O)O[C@H](CO)[C@H](O)[C@@H]2O)cc1 (stereo partly shown) [Compound 4a] here?
**A.** The Ki was 0.074 µM.

**Q.** And the “S.I. I/IX” value [10]?
**A.** The value was 48.6.

**Q.** And the “S.I. II/IX” value [10]?
**A.** The value was 104.

**Q.** For NS(=O)(=O)c1ccc(N2C(=S)NC3C(O)C(C(O)CO)OC32)cc1 [Compound 9a, 1-(4′-Sulfonamidophenyl)-(1″,2″-dideoxy-α-D-galactofurano)[2,1-d]imidazolidine-2-thione], which Ki [7] is on record?
**A.** Its Ki is 4.57 µM.

**Q.** With NS(=O)(=O)c1cccc(NC(=S)N[C@H]2C(O)O[C@H](CO)[C@H](O)[C@@H]2O)c1 (stereo partly shown) [Compound 4b] as the compound, how does the Ki [9] read?
**A.** The Ki was 0.042 µM.

**Q.** And the “S.I. I/IX” value [10]?
**A.** The value was 102.4.

**Q.** And the “S.I. II/IX” value [10]?
**A.** Its value is 22.4.

**Q.** For NS(=O)(=O)c1ccc(CCN2C(=S)NC3C(O)C(C(O)CO)OC32)cc1 [Compound 8c, 1-[2′-(4″-Sulfonamidophenyl)]ethyl-(1‴,2‴-dideoxy-α-D-glucofurano)[2,1-d]imidazolidine-2-thione], which Ki [7] is on record?
**A.** The Ki was 1.05 µM.

**Q.** With CO[C@H]1O[C@H](CO)[C@@H](O)[C@H](O)[C@H]1NC(=S)NCCCCCCOc1ccc2c(-c3ccccc3)cc(=O)oc2c1 [Compound 21f, N′-(Methyl 2-deoxy-α-D-glucopyranosid-2-yl)-N′-{6′-[7″-(4″-phenyl-2″-oxo-2″H-chromen-7″-yl)oxy]hexyl}thiourea] as the compound, how does the GI50 [1] read?
**A.** The GI50 was 36 ± 16 µM.

**Q.** What about the Ki [11] of the same compound?
**A.** Its Ki is 17.3 µM.

**Q.** And the GI50 [2]?
**A.** Its GI50 is 30 ± 7.4 µM.

**Q.** What about the GI50 [3] of the same compound?
**A.** The GI50 was 9.7 µM.

**Q.** And the melting point?
**A.** The melting point was 148 °C.

**Q.** What about the GI50 [4] of the same compound?
**A.** Its GI50 is 25 ± 8 µM.

**Q.** What about the GI50 [5] of the same compound?
**A.** Its GI50 is 23 ± 3.2 µM.

**Q.** What about the Ki [12] of the same compound?
**A.** The Ki was greater than 100 µM.

**Q.** And the Ki [10]?
**A.** The Ki was 0.116 µM.

**Q.** What about the “S.I. I/IX” value [10] of the same compound?
**A.** The value was greater than 858.

**Q.** And the “S.I. II/IX” value [10]?
**A.** Its value is 148.

**Q.** What about the GI50 [6] of the same compound?
**A.** Its GI50 is 34 ± 4 µM.

**Q.** What about the Ki [13] of the same compound?
**A.** Its Ki is 0.164 µM.

**Q.** What about the “S.I. I/XII” value [13] of the same compound?
**A.** The value was greater than 610.

**Q.** And the “S.I. II/XII” value [13]?
**A.** Its value is 106.

**Q.** And the GI50 ([8]; the five cell lines other than SW1573, read-out: GI50, other five lines)?
**A.** Its GI50 is 23 to 36 µM.

**Q.** For CO[C@H]1O[C@H](CO)[C@@H](O)[C@H](O)[C@H]1NC(=S)Nc1ccc2c(C)cc(=O)oc2c1 [Compound C00016], which GI50 [1] is on record?
**A.** The GI50 was greater than 100 µM.

**Q.** What about the GI50 [2] of the same compound?
**A.** Its GI50 is greater than 100 µM.

**Q.** And the GI50 [3]?
**A.** The GI50 was 79 ± 37 µM.

**Q.** And the GI50 [4]?
**A.** The GI50 was 83 ± 30 µM.

**Q.** What about the GI50 [5] of the same compound?
**A.** The GI50 was 86 ± 25 µM.

**Q.** What about the GI50 [6] of the same compound?
**A.** Its GI50 is 79 ± 36 µM.

**Q.** With NS(=O)(=O)c1cccc(N2C(=S)NC3C(O)C(C(O)CO)OC32)c1 [Compound 8b, 1-(3′-Sulfonamidophenyl)-(1″,2″-dideoxy-α-D-glucofurano)[2,1-d]imidazolidine-2-thione] as the compound, how does the Ki [7] read?
**A.** The Ki was 0.0451 µM.

**Q.** For NS(=O)(=O)c1ccc(N2C(=S)NC3C(O)C(C(O)CO)OC32)cc1 [Compound 8a, 1-(4′-Sulfonamidophenyl)-(1″,2″-dideoxy-α-D-glucofurano)[2,1-d]imidazolidine-2-thione], which Ki [7] is on record?
**A.** The Ki was 0.348 µM.

**Q.** Which “S.I. I/IX” value [10] does the source give for NS(=O)(=O)c1ccc(NC(=S)N[C@@H]2O[C@H](CO)[C@H](O)[C@H](O)[C@H]2O)cc1 [Compound 2a] here?
**A.** Its value is 977.1.

**Q.** And the “S.I. II/IX” value [10]?
**A.** Its value is 31.7.

**Q.** What about the “S.I. I/XII” value [13] of the same compound?
**A.** The value was 340.

**Q.** What about the “S.I. II/XII” value [13] of the same compound?
**A.** The value was 11.0.

**Q.** Which results are given for CO[C@H]1O[C@H](CO)[C@@H](O)[C@H](O)[C@H]1NC(=S)NCCCCOc1ccc2c(-c3ccccc3)cc(=O)oc2c1 [Compound 21e, N-(Methyl 2-deoxy-α-D-glucopyranosid-2-yl)-N′-{4′-[7″-(4″-phenyl-2″-oxo-2″H-chromen-7″-yl)oxy]butyl}thiourea]?
**A.** Ki [11]: > 100 µM; melting point: 165 °C; Ki [12]: > 100 µM; Ki [10]: 0.106 µM; S.I. I/IX [10]: >945; S.I. II/IX [10]: >945; Ki [13]: 0.228 µM; S.I. I/XII [13]: >439; S.I. II/XII [13]: >439

**Q.** Which Ki [9] does the source give for NS(=O)(=O)c1ccc(NC(=S)NC2C(O)OC(CO)C(O)C2O)cc1 (stereo not shown) [Compound 3a] here?
**A.** Its Ki is 0.077 µM.

**Q.** And the “S.I. I/IX” value [10]?
**A.** Its value is 35.1.

**Q.** What about the “S.I. II/IX” value [10] of the same compound?
**A.** The value was 126.

**Q.** For NS(=O)(=O)c1ccc(CCNC(=S)N[C@@H]2O[C@H](CO)[C@H](O)[C@H](O)[C@H]2O)cc1 [Compound 2c], which “S.I. I/IX” value [10] is on record?
**A.** Its value is 2067.9.

**Q.** And the “S.I. II/IX” value [10]?
**A.** Its value is 3.3.

**Q.** What about the “S.I. I/XII” value [13] of the same compound?
**A.** Its value is 568.

**Q.** What about the “S.I. II/XII” value [13] of the same compound?
**A.** The value was 0.9.

**Q.** Which “S.I. I/IX” value [10] does the source give for NS(=O)(=O)c1ccc(CCNC(=S)N[C@@H]2O[C@H](CO)[C@@H](O)[C@H](O)[C@H]2O)cc1 [Compound 1c] here?
**A.** Its value is 1.0.

**Q.** What about the “S.I. II/IX” value [10] of the same compound?
**A.** The value was 12.4.

**Q.** And the “S.I. I/XII” value [13]?
**A.** The value was 0.9.

**Q.** What about the “S.I. II/XII” value [13] of the same compound?
**A.** Its value is 11.1.

**Q.** Which Ki [11] does the source give for Cc1cc(=O)oc2cc(OCCCCCCN3C(=S)N[C@@H]4[C@@H](O)[C@@H]([C@H](O)CO)O[C@@H]43)ccc12 [Compound 24c, 1-{6′-[7″-(4″-Methyl-2″-oxo-2″H-chromen-7″-yl)oxy]hexyl}-(1‴,2‴-dideoxy-α-D-glucofurano)[2,1-d]imidazolidine-2-thione] here?
**A.** Its Ki is greater than 100 µM.

**Q.** And the Ki [12]?
**A.** Its Ki is greater than 100 µM.

**Q.** For NS(=O)(=O)c1ccc(NC(=S)N[C@@H]2O[C@H](CO)[C@@H](O)[C@H](O)[C@H]2O)cc1 [Compound 1a], which “S.I. I/IX” value [10] is on record?
**A.** The value was 27.2.

**Q.** And the “S.I. II/IX” value [10]?
**A.** The value was 0.02.

**Q.** And the “S.I. I/XII” value [13]?
**A.** Its value is 937.

**Q.** And the “S.I. II/XII” value [13]?
**A.** The value was 0.9.

**Q.** Which results are given for Cc1cc(=O)oc2cc(OCCCCCCN3C(=S)NC4C(O)C(C(O)CO)OC43)ccc12 [Compound 26, 1-{4′-[7″-(4″-Methyl-2″-oxo-2″H-chromen-7″-yl)oxy]hexyl}-(1‴,2‴-dideoxy-α-D-galactofurano)[2,1-d]imidazolidine-2-thione]?
**A.** Ki [11]: > 100 µM; Ki [12]: > 100 µM

**Q.** Which Ki [9] does the source give for NS(=O)(=O)c1cccc(NC(=S)NC2C(O)OC(CO)C(O)C2O)c1 (stereo not shown) [Compound 3b] here?
**A.** Its Ki is 0.009 µM.
